Results reported in patent publication US20070155802A1, “Fungicide composition comprising an arylamidine derivative and known fungicide compounds” (priority 2004, published 2007).

Legend:
[1] = tested on: Wheat Powdery Mildew (Erysiphe graminis or blumeria graminis); assay: Open field trial on wheat, wheat powdery mildew, natural contamination; assay type: in vivo; details: 20 days after application 2, BBCH73
Protocol: (§1) They are intended to give an illustration of the efficacy of the composition according to the invention on several cereal diseases, in particular a composition combining compound (A), having as chemical name N-ethyl-N-methyl-N′-[4-(chloro-3-trifluoromethylphenoxy)-2,5-xylyl]formamidine, with a fungicide compound of the triazole type, namely prothioconazole. The trials on cereals were carried out in an open field.
(§2) The objective of these field trials is therefore to test the efficacy of compounds (A), alone at 100 g/ha; 125 g/ha and 150 g/ha in combination with prothioconazole at 150 g a.i./ha; representing a class of fungicide compounds. Powdery mildew (Erysiphe graminis or blumeria graminis) and Septoria diseases (Mycosphaerella graminicola or Septoria tritici) are the principal diseases treated.
(§3) The products tested are therefore • N-ethyl-N-methyl-N′-[4-(chloro-3-trifluorométhylphénoxy)-2,5-xylyl]-formamidine as compound (A) at 100 g/ha; 125 g/ha and 150 g/ha as an EC type formulation at 150 g/l; • prothioconazole as compound (B) at 150 g/ha as a formulation at 250 g/l; • compound (A) and prothioconazole combination at 100+150 g/ha as a fresh preparation; • compound (A) and prothioconazole combination at 125+150 g/ha as a fresh preparation; • compound (A) and prothioconazole combination at 150+150 g/ha as a fresh preparation; • the reference product is a mixture of epoxyconazole and pyraclostrobin (Opera® 1,51/ha recommended on Septoria tritici).
(§4) Each trial comprises 3 repeats.
(§5) Untreated control plots are included in the experimental design in order to measure the severity of the diseases.
The trials were conducted under natural contamination conditions. The equipment for application of the different active ingredients is a constant compressed air pressure back sprayer. The spray nozzles have slits. […]
The results were measured 20 days after the second application of the products onto wheat and are presented in table 2; for Erysiphe graminis, assessment 20 days after application 2 at stage BBCH73 by observations of Flag leaf-Flag-1-Flag-2.

[2] = tested on: Wheat Leaf-spot (Septoria tritici or Mycosphaerella graminicola); assay: Open field trial on wheat, wheat leaf-spot, natural contamination; assay type: in vivo; details: 30 days after application 2, BBCH73
Protocol: as §1, §2, §3, §4, §5
The trials were conducted under natural contamination conditions. The equipment for application of the different active ingredients is a constant compressed air pressure back sprayer. The spray nozzles have slits.
The efficacy results were obtained from controls carried out in the field by overall evaluation of the percentage infestation.
The results were measured 30 days after the second application and are presented in table 3; for Septoria tritici, assessment 30 days after application 2 at stage BBCH73 by observations of Flag leaf-Flag-1-Flag-2.

For `CCN(C)C=Nc1cc(C)c(Oc2ccc(Cl)c(C(F)(F)F)c2)cc1C` [Compound A], the “% Efficacy observed (X)” value ([1]; 125 g ai/Ha) was 16%, the “% Efficacy observed (X)” value ([1]; 150 g ai/Ha) was 14% and the “% Efficacy observed (X)” value ([2]; 100 g ai/Ha) was 17%. For the same compound, the “% Efficacy observed (X)” value ([2]; 125 g ai/Ha) was 19% and the “% Efficacy observed (X)” value ([2]; 150 g ai/Ha) was 24%.
`OC(Cc1ccccc1Cl)(Cn1nc[nH]c1=S)C1(Cl)CC1` (stereo not shown) [prothioconazole, reference compound] was tested, and the “% Efficacy observed (X)” value ([1]; 150 g ai/Ha) was 71% and the “% Efficacy observed (X)” value ([2]; 150 g ai/Ha) was 69%.
